Laboratory results reported in patent EP3884941A1, “INFLAMMASOME INHIBITORS AND USE THEREOF” (CENTRO DE INVESTIGACION PRINCIPE FELIPE, priority 2020, dated 2021).
Entries after “also recorded” stand apart in the source; their conditions may differ. Where two headings read alike, the source gives them in different places.

Experiments:
[1] = tested on: NLRP3 inflammasome; assay: inflammasome activation cellular assay, LPS plus ATP, THP-1 cells; type: cell-based, human
Method: The MM01 compound was evaluated in the THP-1, or PMA-differentiated THP-1 cells (50 nM PMA for 24h) stimulated with lipopolysaccharide (LPS) plus adenosine triphosphate (ATP) to stimulate ASC-dependent inflammasomes NLRP3. Briefly, 1x10^6 cells were seeded in 6-well plates in 1 mL RPMI media that contained 1% FBS. Cells were either mock-treated or primed with compounds at the indicated concentrations for 30 min, followed by treatment with 100 ng/mL LPS (Sigma) and 2.5 mM ATP (Sigma) for 6 h at 37°C. In the case of nigericin stimulation, cells were primed with LPS for 3h, and then 10 µM nigericin (Sigma) was added for 30 min. Supernatants were harvested and clarified by centrifugation at 1500 rpm at RT, and a cytokine analysis was performed. Both IL-1β secretion and the release of IL-18were monitored by an ELISA assay (BD OptEIA™ Human IL-1β ELISA Kit and Human IL-18 Module Set eBioscience) following the manufacturer's instructions. Cell viability was analyzed in parallel by evaluating the release of lactate dehydrogenase (LDH) according to a commercial kit (CytoTox-ONE™ Homogeneous Membrane Integrity Assay; Promega). The release of LDH was calculated using the formula: the release of LDH (%) = 100x (Abs490 treated -Abs490 untreated cells)/ Abs490 untreated cells lysed with Triton 9% (maximum release of LDH).
The supernatants of the treated cells were precipitated by the chloroform-methanol method. Pellets were obtained by lysing cells in 25 mM of Tris-HCI pH 7.4, 1 mM EDTA, 1 mM EGTA and 1% SDS, plus protease and phosphatase inhibitors. The protein concentration was determined by the BCA protein assay. Samples were separated in a 14% SDS-PAGE gel, transferred to a nitrocellulose membrane and blocked with 5% skimmed milk for 1 h. Then the membrane was incubated overnight with primary antibodies: α-casp1 (1:1000; Cell Signaling 2225), α-IL-1β (1:1000; Acris R1130P), α-NLRP3 (1:1000; Cell Signaling 15101), α-tubulin (1:3000; Abcam ab6160) at 4°C. Membranes were washed and probed with the appropriate secondary antibody conjugated with peroxidase for enhanced chemiluminescence detection (Amersham Pharmacia Biotech).

[2] = tested on: NLRP3 activation in MSU-induced peritonitis; assay: MSU-induced peritonitis mouse model; type: in vivo, C57BL/6 mice; details: 10 mg/kg i.p. 30 min before MSU 2 mg/mouse i.p.
Method: We next evaluated the efficacy of MM01 in a murine MSU-induced peritonitis model. (Spalinger MR et al. Bio-protocol 2018; 8(5): e2754). Mono-sodium urate (MSU; InvivoGen) crystals are potent activators of the NLRP3 receptor. Upon activation, NLRP3 induces the formation of inflammasome complex, which lead to the production and release of mature IL-1β. In the early phase of peritonitis, the number of infiltrating neutrophils correlates with the production of mature IL-1β. MM01 was injected intraperitoneal 30 min before MSU crystals i.p. injection.
In vivo model was performed according to the protocol approved by the Institutional Animal Ethical Committee of CIPF. C57BL/6 mice were injected i.p. with 10 mg/kg MM01 or vehicle 30 min before i.p. injection of MSU (2 mg MSU crystals in 200 µl sterile PBS). After 6 h, mice were sacrificed, and peritoneal lavage with 5 ml of PBS was performed. Cytokine IL-1β secretion was determined by ELISA (#DY401 R&D Systems) and neutrophil content measured in ACVLAB Laboratorio Valencia.

[3] = target: T1, ASC-mediated PC1 activation (Homo sapiens, UniProt P29466); assay: ASC-mediated PC1 reconstitution in vitro assay (primary screening); type: biochemical
T1 construct: His; made in house; host or cells: PC1: Sf9 insect cells (baculovirus)
T1 sequence (P29466 1-404): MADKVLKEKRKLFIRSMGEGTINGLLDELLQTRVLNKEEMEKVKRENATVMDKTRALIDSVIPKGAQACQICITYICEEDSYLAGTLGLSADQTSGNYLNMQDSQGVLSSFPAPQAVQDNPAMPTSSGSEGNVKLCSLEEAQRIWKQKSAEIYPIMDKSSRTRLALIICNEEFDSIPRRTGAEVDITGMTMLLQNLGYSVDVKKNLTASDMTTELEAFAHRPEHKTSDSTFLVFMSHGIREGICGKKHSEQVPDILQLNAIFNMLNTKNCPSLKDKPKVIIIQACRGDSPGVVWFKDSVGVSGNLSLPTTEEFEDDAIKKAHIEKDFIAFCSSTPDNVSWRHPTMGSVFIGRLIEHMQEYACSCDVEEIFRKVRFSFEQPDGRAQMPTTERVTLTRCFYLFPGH
Method: Recombinant PC1 (50 nM) was preincubated with the indicated concentrations of compounds for 20 min at RT in Assay Buffer (20 mM HEPES pH 7.5, 10 mM KCI, 1.5 mM MgCl2, 1mM EDTA, 1 mM EGTA, 1 mM DTT). Then 300 nM of ASC were added and incubated for another 10 min period. Caspase-1 activation was measured using fluorogenic substrate Ac-WEHD-AFC (80 µM; Enzo Life Sciences) by continuously monitoring the release of the AFC (7-Amino-4-trifluoromethylcoumarin) product in a Wallac Victor workstation. The compounds were initially tested at 20 µM with 1% of DMSO. Data are reported as the percentage of inhibition compared with the absence of the compound.
The materials and methods employed in these experiments are now described.

[4] = tested on: NLRP3 inflammasome; assay: murine peritoneal macrophages cellular assay, LPS plus ATP; type: cell-based, Mice (BALB/c)
Method: Mice (BALB/c) were euthanized, and 5 ml of cold medium was injected (20G needle) into the peritoneal region. The aspirated fluid from peritoneum was centrifuged for 10 min at 400 × g and the cell pellet resuspended in DMEM/F12-10 (1 ml). 40000 cells/well were plated in 24-well plates. Cells were allowed to adhere to the plate by culturing them 2 h at 37°C and then, non-adherent cells were removed by gently washing three times with warm PBS. Macrophages were primed for 4 h with 100 ng/ml pure LPS (Alexis Biochemicals Corporation), in serum-free IMDM medium followed by 30 min with 5 mM ATP. Supernatants were harvested and clarified by centrifugation at 1500 rpm at RT and cytokine, and caspase-1 activation analysis was performed as previously described in Example 3.

[5] = THP-1, LPS 100 ng/ml + ATP 2.5 mM, MM01 1, 2.5 or 5 µM, ELISA

C=CCN1C(=O)/C(=C2/C(=O)Nc3ccccc32)SC1=S [MM01]
IL-1β secretion [1, 5]: decrease
IL-18 secretion [1, 5]: decrease
caspase-1 and IL-1β processing ([1]; THP-1, LPS + ATP, immunoblotting (Figure 3C)): decrease
LDH release ([1]; THP-1, LPS + ATP, pyroptosis / cell viability, MM01 1, 2.5 or 5 µM, VX-765 5 µM): significantly reduce; also recorded: significantively decreased
neutrophil recruitment ([2]; peritoneal cavity after 6 h): efficiently suppressed
MSU injection-induced IL-1β production ([2]; peritoneal lavage after 6 h, ELISA): efficiently suppressed
IC50 ([3]; PC1 50 nM, ASC 300 nM, substrate Ac-WEHD-AFC, read-out: IC50): 500 ± 100 nM
IC50 ([3]; dose-response curve 0.04 to 40 µM (Figure 1B), stated in words): in the nanomolar range
formation of p20 subunit ([3]; immunoblotting of PC1 processing (Figure 1C)): decrease
TNF-α release [4]: not correlated with a significant reduction
release of LDH [4]: decreased
IL-1β release ([4]; at 5 and 10 µM of MM01): significant inhibition
IL-6 release ([4]; at 5 and 10 µM of MM01): significant inhibition
